Test results taken from patent publication US20040266885A1, “Wood preservative compositions” (priority 2001, published 2004).
Values joined by “and” are separate entries in the source; they are usually repeats but may differ in a detail not shown here. Equal values may be shown once. “Also recorded” adds a separate entry of the source.

Tested on: C. formosanus
Assay: Laboratory termite test, modified ASTM 3345-74, soil/sand culture, NaOH carrier, blocks not leached; for Termite Attack Rating: key: Score 0: No attack; Score 1: Attempted attack; Score 2: Slight attack; Score 3: Average attack; Score 4: Strong attack
Type: in vivo
Conditions: for termite survival / mortality at the end of the test period / Tunneling Activity / Visible Mortality / prevention of termite attack / restriction of termite damage: 4 weeks; for prevention of termite attack / restriction of termite damage: all concentrations used (1-10%); for Mean Rating (termite attack): mean of 4 specimens; for Mean Rating (termite attack) / Termite Attack Rating: 4 weeks soil/sand culture; for Termite Attack Rating: single specimen; for repellent effect (soil covering of test specimens): specimens treated with 5, 7 and 10% solutions only partially soil covered
Description: A further experiment was undertaken according to the modified ASTM 3345-74 test detailed in Example 2 with the following 6 changes to the protocol:
1. The solutions tested were as follows:
2. The incubation substrate was a soil/sand mixture (1:1) to which had been added 75 ml of de-ionised water. This substrate was chosen as being more representative of the laboratory conditions under which the wild caught termites (C. formosanus) were maintained.
3. The treated timber samples were positioned on plastic mesh on top of the soil substrate. This method of placement is that used in European Standard EN 117 and is more representative of the feeding conditions of the wild caught termites maintained in the laboratory.
4. 250 termites were used in each incubation vessel.
5. The wood block specimens were not subjected to a leaching process.
6. Evidence of termite tunneling activity and mortality was determined at completion of the incubation period only (4 weeks) and no examinations were undertaken for surface activity.

SMILES | termiticidal and termite repellent activity (conclusion) | termite survival / mortality at the end of the test period | Tunneling Activity (solution conc. 1%) | Visible Mortality (solution conc. 1%) | Tunneling Activity (solution conc. 3%) | Visible Mortality (solution conc. 3%) | Tunneling Activity (solution conc. 5%) | Visible Mortality (solution conc. 5%) | Tunneling Activity (solution conc. 7%) | Visible Mortality (solution conc. 7%) | Tunneling Activity (solution conc. 10%) | Visible Mortality (solution conc. 10%) | prevention of termite attack / restriction of termite damage | Mean Rating (termite attack) (solution conc. 1%) | Termite Attack Rating (solution conc. 1%) | Mean Rating (termite attack) (solution conc. 3%) | Termite Attack Rating (solution conc. 3%) | Mean Rating (termite attack) (solution conc. 5%) | Termite Attack Rating (solution conc. 5%) | Mean Rating (termite attack) (solution conc. 7%) | also measured
Oc1c(Br)cc(Cc2cc(Br)c(O)c(Br)c2)cc1Br [TBBF] | significant termiticidal and termite repellent activity | the majority of the termites were killed by the end of the test period | Yes | 34-66% | Yes | 34-66% | Yes | 67-100% | Yes | 67-100% | Yes | 67-100% | significant attack was prevented by all concentrations; also recorded: a very significant effect in restricting termite damage | 1.50 | 3 and 1 | 0.75 | 0 and 1 | 0.5 | 0 and 1 | 0.75 | toxic value, lower (concentration at which the wood is no longer sufficiently protected) (mean loading, solution concentration 1%, not leached): 6.78 kg/m^3; toxic value, upper (lowest concentration which protects the wood) (mean loading, solution concentration 3% (TBBF) or 1%, not leached): 20.53 kg/m^3; Termite Attack Rating (solution conc. 7%): 1 and 0; Mean Rating (termite attack) (solution conc. 10%): 0.5; Termite Attack Rating (solution conc. 10%): 1 and 0; repellent effect (soil covering of test specimens): a repellent effect
O=S(=O)(c1cc(Br)c(O)c(Br)c1)c1cc(Br)c(O)c(Br)c1 [TBBS] | significant termiticidal and termite repellent activity | significant termite mortality by the end of the test period | Yes | 67-100% | Yes | 34-66% and 67-100% | Yes | 67-100% | Yes | 67-100% and 100% | Yes | 34-66% and 67-100% | significant attack was prevented by all concentrations; also recorded: a very significant effect in restricting termite damage | 1.00 | 1 | 0.5 | 1 and 0 | 1.00 | 1 | 0.75 | Termite Attack Rating (solution conc. 7%): 1 and 0; Mean Rating (termite attack) (solution conc. 10%): 0.25; Termite Attack Rating (solution conc. 10%): 0 and 1; repellent effect (soil covering of test specimens): a repellent effect was noted
